Source: PubChem BioAssay AID1963983 (Molecular Pharmacology Branch, DTP, NCI, 2024)

Test system: 186277-243-T-J2-PDC multi-cell spheroid viability
Assay: Anticancer human tumor 186277-243-T-J2-PDC patient-derived colon adenocarcinoma cell line growth inhibition [PI3K]
Conditions: for IC50: curve of first compound; for viability, T/C: stronger effect = lower value
Description: Combinatorial screen of targeted agents with the PI3K inhibitors inavolisib, alpelisib, duvelisib, and copanlisib in multi-cell type tumor spheroids
A high-throughput screen of multi-cell type tumor spheroids was designed to identify active combinations of targeted small molecules and PI3K pathway inhibitors. Complex spheroids include a stromal component modeled by human endothelial cells (HUVEC) and fibroblasts modeled by human mesenchymal stem cells (MSCs). The concentration ranges selected for each drug and investigational agent were based upon clinically achievable concentrations if the clinical Cmax of the agent was known.
Compounds. The drugs and investigational agents: inavolisib (NSC800729), alpelisib (NSC765974), duvelisib (NSC772469), copanlisib (NSC816437), ipatasertib (NSC767898), afuresertib (NSC778305), talazoparib (NSC767125), sapanisertib (NSC764658), selumetinib (NSC741078), tovorafenib (DAY101, NSC766906), vemurafenib (NSC761431), ravoxertinib (NSC781343), sotorasib (NSC818433), MRTX1133 (NSC 836407), abemaciclib (NSC 768073), palbociclib (NSC758247), venetoclax (NSC 766270), SY5609 (NSC837396), enzalutamide (NSC755605), and darolutamide (NSC825331), were obtained from the National Cancer Institute (NCI) Developmental Therapeutics Program Chemical Repository. The FDA-approved anticancer drug set is available from the NCI Developmental Therapeutics Program. […] The stock solutions were prepared in dimethyl sulfoxide (DMSO, Sigma-Aldrich, St. Louis, MO, cat. D2650) at 800-fold the tested concentration and stored at -70 degrees C prior to their use. All drugs and investigational agents were tested over a range starting from a high concentration at or near the clinical Cmax and decreasing in half-log increments. If the clinical Cmax for an agent had not been determined, the highest concentration tested was 10 microM.
Cell Culture. All cells were maintained in an incubator at 37 degrees C and 5% CO2 with 95% humidity. The PDC lines were cultured according to standard operating procedures established by the NCI PDMR (https://pdmr.cancer.gov/sops/default.htm). All PDCs were thawed and cultured in Matrigel-coated flasks prepared with a working solution of 1X Ham's F-12 nutrient mix, without supplementation (Invitrogen, Waltham, MA, cat. 11765054), 100 U/mL penicillin-streptomycin (Invitrogen, cat. 15140122), and 2.5% Matrigel (Corning Inc., Corning, NY, cat. 354248) for the first three passages. The 354836-022-R-J1-PDC, 475296-252-R-J1-PDC, and 997726-040-R-J2-PDC lines were cultured in 6A media, which includes advanced DMEM/F-12 (Thermo Fisher Scientific, cat. 12634028), 10 mM HEPES (Thermo Fisher Scientific, cat. 15630080), 1X GlutaMAX supplement (Thermo Fisher Scientific, cat. 35050061), 0.1 mg/mL primocin (InvivoGen, San Diego, CA, cat. ant-pm-2), 10% defined fetal bovine serum, heat inactivated (HyClone Laboratories Inc., Logan, UT, cat. SH30070.03HI), 50% L-WRN conditioned media (ATCC, cat. CRL-3276), 1.25 mM N-Acetyl-L-cysteine (Sigma-Aldrich, cat. A9165), 10 mM nicotinamide (Sigma-Aldrich, cat. N0636), 1X B-27 supplement (Thermo Fisher Scientific, cat. 17504044), 1X N-2 supplement (Thermo Fisher Scientific, cat. 17502048), and 10 microM Y-27632 dihydrochloride (Tocris Bioscience, Bristol, United Kingdom, cat. 1254). The 624824-186-R-J2-PDC line was cultured in 6C/Colon 1B media, which includes all 6A media components plus 50 ng/mL human EGF recombinant protein (Thermo Fisher Scientific, cat. PHG0311). […]
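Note: spheroids exposed to compounds for seven days before viability reading.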
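Throughout, for viability, T/C: 100% = DMSO vehicle control viability.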

- IC50 (second compound 0.00316 µM): 115 nM
- IC50 (second compound 0.01 µM): 77.8 nM
- IC50 (second compound 0.0316 µM): 39.4 nM
- IC50 (second compound 0.1 µM): 11.9 nM
- IC50 (second compound 0.316 µM): < 9.49 nM
- IC50 (second compound 1 µM): < 9.49 nM
SMILES: Cn1cnc2c(F)c(Nc3ccc(Br)cc3Cl)c(C(=O)NOCCO)cc21 + CC(Nc1ccc2c(c1)OCCn1cc(N3C(=O)OCC3C(F)F)nc1-2)C(N)=O
- viability, T/C (second compound 0.00316 µM, first compound 0.00949 µM): 97.2%
- viability, T/C (second compound 0.00316 µM, first compound 0.03 µM): 83%
- viability, T/C (second compound 0.00316 µM, first compound 0.0949 µM): 47.7%
- viability, T/C (second compound 0.00316 µM, first compound 0.3 µM): 36.6%
- viability, T/C (second compound 0.00316 µM, first compound 0.949 µM): 14.2%
- viability, T/C (second compound 0.00316 µM, first compound 3 µM): 8.95%
- viability, T/C (second compound 0.01 µM, first compound 0.00949 µM): 101%
- viability, T/C (second compound 0.01 µM, first compound 0.03 µM): 79.8%
- viability, T/C (second compound 0.01 µM, first compound 0.0949 µM): 40.4%
- viability, T/C (second compound 0.01 µM, first compound 0.3 µM): 26.5%
- viability, T/C (second compound 0.01 µM, first compound 0.949 µM): 15.9%
- viability, T/C (second compound 0.01 µM, first compound 3 µM): 9.46%
- viability, T/C (second compound 0.0316 µM, first compound 0.00949 µM): 94%
- viability, T/C (second compound 0.0316 µM, first compound 0.03 µM): 54.5%
- viability, T/C (second compound 0.0316 µM, first compound 0.0949 µM): 32.8%
- viability, T/C (second compound 0.0316 µM, first compound 0.3 µM): 19.2%
- viability, T/C (second compound 0.0316 µM, first compound 0.949 µM): 10.6%
- viability, T/C (second compound 0.0316 µM, first compound 3 µM): 6.13%
- viability, T/C (second compound 0.1 µM, first compound 0.00949 µM): 53.9%
- viability, T/C (second compound 0.1 µM, first compound 0.03 µM): 33.8%
- viability, T/C (second compound 0.1 µM, first compound 0.0949 µM): 22.4%
- viability, T/C (second compound 0.1 µM, first compound 0.3 µM): 8.1%
- viability, T/C (second compound 0.1 µM, first compound 0.949 µM): 7.55%
- viability, T/C (second compound 0.1 µM, first compound 3 µM): 3.21%
- viability, T/C (second compound 0.316 µM, first compound 0.00949 µM): 30.7%
- viability, T/C (second compound 0.316 µM, first compound 0.03 µM): 16.4%
- viability, T/C (second compound 0.316 µM, first compound 0.0949 µM): 9.95%
- viability, T/C (second compound 0.316 µM, first compound 0.3 µM): 4.19%
- viability, T/C (second compound 0.316 µM, first compound 0.949 µM): 4.43%
- viability, T/C (second compound 0.316 µM, first compound 3 µM): 3.42%
- viability, T/C (second compound 1 µM, first compound 0.00949 µM): 20.1%
- viability, T/C (second compound 1 µM, first compound 0.03 µM): 10.1%
- viability, T/C (second compound 1 µM, first compound 0.0949 µM): 4.65%
- viability, T/C (second compound 1 µM, first compound 0.3 µM): 3.78%
- viability, T/C (second compound 1 µM, first compound 0.949 µM): 3.32%
- viability, T/C (second compound 1 µM, first compound 3 µM): 0.47%
